Where “and” joins values, the source holds several entries; their conditions need not be identical. Equal values may be shown once.

The subject of this assay is decay organisms. Nature of the assay: Soil contact veneer exposure test: dip-treated Scots pine sapwood veneers in damp compost, pulled by hand weekly until failure. To be noted: for Half life for fungicide at 2% active ingredient (ai): Example 3; for Half life for fungicide at 2% active ingredient (ai) / Half life for fungicide at 2% ai: 2% single biocide; for average time for failure to occur, Quat Only: 0.36% active quaternary ammonium compound in deionised water. The text has this: The present invention also provides a simple exposure test for evaluating the wood preserving abilities of candidate ingredients or compositions. This exposure test is based on the premise that small dimension timber test specimens tend to fail more quickly than larger ones in soil contact situations.
It is preferable that the thickness of the veneers be greater than 0.1 mm, as veneers of lesser thickness can often be pulled apart by hand without undergoing exposure to decay organisms. Veneers which are thicker than 0.4 may take an excessive amount of time to fail the exposure test. In one embodiment, the thickness of the veneers is about 0.2 mm and the wood is the sapwood of the Scots pine (Pinus sylvestris). Other woods and thicknesses can be used. […] An example of convenient width and length dimensions are 15×50 mm. However, width and length are not critical provided they are kept consistent within a test, although very large or small length or width dimensions may be difficult to handle.
Accordingly, the test of the present invention comprises testing the integrity of a veneer after exposure to a decay-inducing environment. In one embodiment, this environment is damp compost in which decay organisms are present and water is present at just above the water holding capacity of the compost. If desired, other media can be used, and the test can be conducted at water contents which are below, at, or above the water-holding capacity of the media.
In general, the integrity of the veneer is inversely related to the length of exposure to the decay promoting environment. The integrity of the veneer can be tested by applying a force to the veneer and noting whether or not the veneer breaks. Thus, if wood preservative agents are applied to the veneers, these veneers would be expected to withstand longer exposure to the environment without breaking compared to control veneers without breaking.
The force applied to the veneers is preferably a force which pulls the two ends in opposite directions. The force can be applied by the use of an instrument or manually. If there is significant decay the veneer will break, generally near the junction between the portion submerged in the decay accelerating medium and the portion exposed to air. If the force is applied manually, it is preferable that the same individual conduct the test at the various exposure time points.
The veneers were cut such that both late wood and early wood were present in each veneer. The following biocides were tested: dichlorophen, fenarimol, imazalil sulfate, and PHMB.
Test solutions were prepared and sets of veneers were dip treated such that there were 6 replicate veneers for each treatment under investigation. Additionally six veneers were dip treated in deionised water to act as water controls. […] Plastic containers (approximately 350×220 mm by at least 60 mm high) were part filled with John Innes Number 2 potting compost at a little above its water holding capacity. The veneers for a particular test were placed in six rows within a container such that approximately half the veneer was below the compost and half above. The veneers were placed in the compost such than those given a particular treatment were distributed throughout the container and were not grouped together. The containers, compost and veneers were weighed then incubated at about 30° C. and near 100% relative humidity in an incubator. Each week during the test the assembly was reweighed and deionised water added to bring it back to its original mass. After 3 weeks each veneer was examined in turn. It was held between the fingers at each end and pulled to see if it could be broken. If it could be pulled apart a failure was recorded. If the veneer was sound, this was recorded and the veneer was returned to its original position. After a further one week incubation all sound veneers were assessed again as described above, with the same person conducting the assessments.

[1] abbreviates: Example 7, solutions in acetone, single biocide at 0.8%.
Setting [2] is: Example 7, solutions in acetone, single biocide at 1.6%.
The mark [3] stands for this setting: Example 5, solutions in IMS (alcohol).
The mark [4] stands for this setting: Example 6, solutions in IMS (alcohol), single biocide at 0.8%.
Where [5] appears, read: Example 6, solutions in IMS (alcohol), single biocide at 1.6%.
Where [6] appears, read: Example 4, solutions in acetone.
The mark [7] stands for this setting: Example 8, solutions in IMS (alcohol), single biocide at 0.8%.
The mark [8] stands for this setting: Example 8, solutions in IMS (alcohol), single biocide at 1.6%.
Where [9] appears, read: Example 1, single biocide at 0.8% in treatment solution, 6 replicate veneers.

On to `CC(C1CC1)C(O)(Cn1cncn1)c1ccc(Cl)cc1` (stereo not drawn) [Cyproconazole, α-(4-chlorophenyl)-α-(1-cyclopropylethyl)-=1H-1,2,4-triazol-1-ethanol], for which the “Half life for fungicide at 2% active ingredient (ai)” value (solutions in IMS (alcohol)) is 6.67 weeks. Moreover, the Calculated half life is, setting by setting: under setting [1], 4.33 weeks; under setting [2], 4.50 weeks.
On to `CCCCCCCCCC[N+](C)(C)CCCCCCCCCC.[Cl-]` [DDAC, didecyl dimethyl ammonium chloride], for which, for the setting “Example 2”, the “average time for failure to occur, Quat Only” value was 4.2 weeks. The “Half life for fungicide at 2% ai” value under setting [3] was 5.50 weeks. The Calculated half life under setting [4] is 5.17 weeks and the Calculated half life under setting [5] was 6.67 weeks.
Take `CCCCCCCCCCCCCN1CC(C)OC(C)C1` (stereo not drawn) [Tridemorph, 4-alkyl-2,6-dimethylmorpholine]: the “Half life for fungicide at 2% active ingredient (ai)” value (solutions in IMS (alcohol)) is 5.83 weeks.
Regarding `Oc1ccc(Cl)cc1Cc1cc(Cl)ccc1O` [Dichlorophen, 2,2′-methylenebis [4-chlorophenol]], the “average time for failure to occur” value was 9.5 weeks (Example 1, 0.6% dichlorophen alone) and 5.7 weeks (Example 2, 0.60% dichlorophen, no quat). Moreover, the “Half life for fungicide at 2% active ingredient (ai)” value (solutions in IMS (alcohol)) was found to be 15.67 weeks. Further, the “Half life for fungicide at 2% ai” value is, setting by setting: under setting [6], 18.17 weeks; under setting [3], 17.00 weeks. For the same molecule, the Calculated half life is on record as 11.33 weeks under setting [4]; 14.50 weeks under setting [5]; 8.67 weeks under setting [1]; 10.83 weeks under setting [2]; 7.83 weeks under setting [7]; 11.67 weeks under setting [8].
Consider `OB(O)O` [Boric acid], for which the Calculated half life runs as follows: under setting [7], 4.17 weeks; under setting [8], 4.50 weeks.
On to `O=C(Nc1ccccc1)c1ccccc1O` [Salicylanilide, 2-hydroxy-N-phenylbenzamide], for which the “Half life for fungicide at 2% active ingredient (ai)” value (solutions in IMS (alcohol)) was determined as 14.00 weeks. Also, the Calculated half life is 4.83 weeks under setting [7] and 5.83 weeks under setting [8].
Consider `CCCC1COC(Cn2cncn2)(c2ccc(Cl)cc2Cl)O1` (stereo not drawn) [Propiconazole, 1-[[2-(2,4-dichlorophenyl)-4-propyl-1,3-dioxolan-2-yl]=methyl]-1H-1,2,4-triazole], for which, under setting [6], the “Half life for fungicide at 2% ai” value came to 6.33 weeks. Further, the Calculated half life runs as follows: under setting [1], 5.67 weeks; under setting [2], 6.00 weeks.
Consider `CCCCCCCCn1sc(Cl)c(Cl)c1=O` [RH 287, 4,5-dichloro-2-n-octyl-3(2H)-isothiazolone], for which the Calculated half life is, setting by setting: under setting [1], 10.00 weeks; under setting [2], 16.83 weeks.
In the case of `CCCCCCCCCCCCN(CCCN)CCCN` [Triameen, N,N-bis(3-aminopropyl) dodecylamine], the “Half life for fungicide at 2% ai” value under setting [3] is given as 5.50 weeks.
As to `OC(c1ccc(Cl)cc1)(c1cncnc1)c1ccccc1Cl` (racemic) [Fenarimol, (±)-2,4′-dichloro-α-(pyrimidin-5-yl) benzhydryl alcohol], the “average time for failure to occur” value under setting [9] is ~7.2 weeks and 7.2 weeks. Besides, the “Half life for fungicide at 2% active ingredient (ai)” value (solutions in IMS (alcohol)) is reported as 7.33 weeks.
For “Poly(hexamethylenebiguanide) hydrochloride [PHMB]”, the “average time for failure to occur” value under setting [9] was found to be 4.8 weeks. The Calculated half life reads like this: under setting [7], 5.00 weeks; under setting [8], 5.50 weeks.
In the case of `COC(=O)N(OC)c1ccccc1COc1ccn(-c2ccc(Cl)cc2)n1` [Pyraclostrobin, methyl N-{2-[1-(4-chlorophenyl)-1H-pyrazol-3-yloxymethyl]phenyl}(N-methoxy)carbamate], the “Half life for fungicide at 2% ai” value under setting [3] is 5.67 weeks.
On to `N#Cc1c(Cl)c(Cl)c(Cl)c(C#N)c1Cl` [Chlorothalonil, 2,4,5,6-tetrachloro-1,3-benzenedicarbonitrile], for which the Calculated half life under setting [1] is recorded as 9.33 weeks and the Calculated half life under setting [2] is given as 12.33 weeks.
“alkyl dimethyl benzyl ammonium chloride [BAC]”: the “Half life for fungicide at 2% ai” value under setting [3] was determined as 5.00 weeks. Besides, the Calculated half life is recorded as 5.00 weeks under setting [7] and 5.00 weeks under setting [8].
Take “1H-imidazole, 1-(2-(2,4-dichlorphenyl)-2-(2-propenyloxy)ethyl)-,sulfate [Imazalil Sulphate]”: the “average time for failure to occur” value (Example 1, single biocide at 0.4% in treatment solution) worked out at 5.2 weeks. For the same molecule, the “Half life for fungicide at 2% ai” value under setting [3] was 7.83 weeks. Moreover, the Calculated half life under setting [4] is given as 7.00 weeks and the Calculated half life under setting [5] is on record as 8.00 weeks.
For the molecule “N,N-didecyl-N-methyl-poly(oxyethyl) ammonium propionate [Bardap 26]”, the “average time for failure to occur, Quat Only” value (Example 2) turned out to be 5.0 weeks. Besides, the Calculated half life by setting is: under setting [4], 5.17 weeks; under setting [5], 6.00 weeks.
For the molecule `CC(Cc1ccc(C(C)(C)C)cc1)CN1C[C@@H](C)O[C@@H](C)C1` (stereo partly drawn) [Fenpropimorph, cis-4-[3-[4-(1,1-dimethylethyl)phenyl]-2-methylpropyl]-=2,6-dimethylmorpholine], the “Half life for fungicide at 2% active ingredient (ai)” value (solutions in IMS (alcohol)) is reported as 6.17 weeks. Besides, the Calculated half life under setting [1] is listed as 3.67 weeks and the Calculated half life under setting [2] is recorded as 4.33 weeks.

Values taken from patent US20060217447A1, “Wood preservative formulations comprising dichlorophen” (priority 2005, published 2006).
